“And” between values parts separate entries of the source, which are not always exact repeats. Identical values can stand only once. Like-named read-outs stand apart in the source and are kept apart here.

This test has as its target T1, Recombinant human JAK1 catalytic domain (Homo sapiens, UniProt P23458).
T1 construct: amino acids 866-1154; catalog number PV4774; purchased Invitrogen PV4774
In words: JAK1 Ulight-JAK1 peptide assay. The class given is biochemical. The procedure: Recombinant human JAK1 (catalytic domain, amino acids 866-1154; catalog number PV4774) was purchased from Invitrogen. 1 ng of JAK1 was incubated with 20 nM Ulight-JAK1(tyr1023) peptide (Perkin Elmer catalog number TRF0121) in kinase reaction buffer (15 mM MOPS pH6.8, 0.01% Brij-35, 5 mM MgCl2, 2 mM DTT, 7 μM ATP) with or without 4 μL containing test compound or vehicle (DMSO, 1% final concentration), in a total volume of 20 μL, in a white 384 Opti plate (Perkin Elmer, catalog number 6007290). […] Readout was performed using the Envision with excitation at 320 nm and measuring emission at 615 nm (Perkin Elmer). Kinase activity was calculated by subtracting relative fluorescence units (RFU) obtained in the presence of a positive control inhibitor (10 μM staurosporine) from RFU obtained in the presence of vehicle. The ability of a test compound to inhibit this activity was determined as:
Percentage inhibition=((RFU determined for sample with test compound present−RFU determined for sample with positive control inhibitor) divided by (RFU determined in the presence of vehicle−RFU determined for sample with positive control inhibitor))*100.
A dose dilution series was prepared for the compound enabling the testing of dose-response effects in the JAK1 assay and the calculation of the IC50 for the compound. […] The data were expressed as the average IC50 from the assays±standard error of the mean.

T1 sequence (P23458 866-1154): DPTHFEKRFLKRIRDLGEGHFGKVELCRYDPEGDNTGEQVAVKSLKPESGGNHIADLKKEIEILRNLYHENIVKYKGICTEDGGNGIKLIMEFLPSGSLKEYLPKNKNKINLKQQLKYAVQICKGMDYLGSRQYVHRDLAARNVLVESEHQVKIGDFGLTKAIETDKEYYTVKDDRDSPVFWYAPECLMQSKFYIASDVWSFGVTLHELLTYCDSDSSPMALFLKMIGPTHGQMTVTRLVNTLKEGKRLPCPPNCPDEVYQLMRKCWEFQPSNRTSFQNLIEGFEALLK

Turning to `Nc1nc2cccc(-c3ccc(CN4CCS(=O)(=O)CC4)cc3)n2n1` [Formula I, 5-[4-(1,1-Dioxothiomorpholin-4-ylmethyl)-phenyl]-[1,2,4]triazolo[1,5-a]pyridin-2-ylamine], the IC50 (average, read-out: IC50 (average)) was found to be 307 nM; the IC50 (individual determinations, read-out: IC50) is 347 nM and 355 nM and 222 nM and 714 nM and 167 nM and 103 nM and 187 nM and 582 nM and 295 nM and 242 nM and 159 nM.
